Reference: PubChem BioAssay (NCI)
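Cultured in 96-well plates, cells were exposed to test compound for 48 hours across five concentrations. GI50 is the concentration that inhibits growth by half. At the TGI there is no net growth.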

Columns and labels:
Test in all cases: NCI-60 cell line screen, 48 h
SF-539 CNS = system: SF-539 CNS
NCI-H522 lung = system: NCI-H522 lung
SK-MEL-5 melanoma = system: SK-MEL-5 melanoma
HOP-92 NSCLC = system: HOP-92 NSCLC
SN12C renal = system: SN12C renal
NCI-H23 lung = system: NCI-H23 lung
OVCAR-8 ovarian = system: OVCAR-8 ovarian
M14 melanoma = system: M14 melanoma
MDA-MB-435 = system: MDA-MB-435
RXF 393 renal = system: RXF 393 renal

SMILES	TGI (SF-539 CNS)	TGI (NCI-H522 lung)	TGI (SK-MEL-5 melanoma)	TGI (HOP-92 NSCLC)	TGI (SN12C renal)	TGI (NCI-H23 lung)	TGI (OVCAR-8 ovarian)	TGI (M14 melanoma)	TGI (MDA-MB-435)	TGI (RXF 393 renal)	GI50 (SF-539 CNS)	GI50 (NCI-H522 lung)	GI50 (SK-MEL-5 melanoma)	GI50 (HOP-92 NSCLC)	GI50 (SN12C renal)	GI50 (OVCAR-8 ovarian)	GI50 (RXF 393 renal)	GI50 (MDA-MB-435)
COc1cc2c(cc1OC)C(Cl)C(c1ccc(Cl)c(Cl)c1)=C2Cl (configuration not stated)	22.2 µM	> 100 µM	19.8 µM	15.1 µM	26.5 µM	> 100 µM	19.5 µM	50.1 µM										
CC1(C)CC(=O)c2c(nc3ccc4ccccc4c3c2-c2ccc(NC(=O)CCCCCCCCC(=O)Nc3ccc(-c4c5c(nc6ccc7ccccc7c46)CC(C)(C)CC5=O)cc3)cc2)C1	> 100 µM		> 100 µM	> 100 µM	> 100 µM	> 100 µM	> 100 µM	> 100 µM	> 100 µM									
OC(CCNCc1ccccc1)c1ccc2ccccc2c1 (configuration not stated)	31.9 µM	35 µM	32.4 µM		72.2 µM	62.1 µM	45.9 µM	> 100 µM	44.2 µM	37.1 µM								
COc1cc(C2c3cc4c(cc3OC(NNC(N)=O)C2C)OCO4)cc(OC)c1O (configuration not stated)	4.71 µM	10.5 µM	18 µM	> 90.2 µM	> 90.4 µM	> 100 µM	> 100 µM	> 42.6 µM		> 20.9 µM								
COc1ccc(-c2c(C#N)c(S)n(NS(=O)(=O)c3ccc(C)cc3)c(=O)c2C#N)cc1	29.8 µM	33.7 µM	30 µM	> 100 µM	34.8 µM		74.8 µM	52.9 µM		42.5 µM								
O=C(Cn1c(C(=O)/C=C/c2cccs2)nc2ccccc21)c1ccc(Cl)cc1	> 100 µM		43.3 µM	93 µM	50.1 µM	36.8 µM		40.7 µM	> 100 µM	> 100 µM								
C/C=C(/C)C(=O)O[C@H](C[C@@H](C)[C@H]1CC(c2ccoc2)OC1=O)[C@@]1(C)C(=O)CCC2O[C@]21C (some centres not stated)	> 100 µM	> 100 µM	> 100 µM			> 100 µM	> 100 µM	> 100 µM	> 100 µM	> 100 µM								
O=c1ccn(CC2(CO)CC(Cc3ccccc3)C2)c(=O)[nH]1 (configuration not stated)	> 100 µM	> 100 µM	> 100 µM		> 100 µM	> 100 µM	> 100 µM		> 100 µM	> 100 µM								
CCOC(=O)C(NC(=O)CC)(Nc1cc(C)on1)C(F)(F)F (configuration not stated)	> 100 µM		> 100 µM		> 100 µM	> 100 µM	> 100 µM	> 100 µM	> 100 µM	> 100 µM								
C=C(CO[Si](C)(C)C(C)(C)C)C(C)=O	> 62.2 µM	17.3 µM	28.4 µM		> 68.5 µM	> 56.3 µM	37.5 µM	27.5 µM	36.3 µM	29 µM								
Cc1c2c(n(CCc3ccc(Cl)cc3)c1C)NC(c1ccccc1)C(C#N)S2(=O)=O (configuration not stated)	> 100 µM	> 100 µM	14.3 µM	> 100 µM	> 100 µM	> 100 µM	> 100 µM	> 100 µM	> 66.9 µM									
NNC(=O)Cn1c2ccc(Br)cc2c2nc3ccccc3nc21	> 100 µM		> 100 µM		> 100 µM	> 100 µM	> 100 µM	> 100 µM	> 100 µM	> 100 µM								
C/C(Nc1ccc(F)cc1)=C1/CCOC1=O	> 100 µM	> 100 µM	> 100 µM	> 100 µM	> 100 µM	> 100 µM	> 100 µM		> 100 µM	> 100 µM								
COc1ccc(-n2c(=O)n(C)c(=O)n2-c2ccc(OC)cc2)cc1	> 100 µM		> 100 µM	> 100 µM	> 100 µM	> 100 µM	> 100 µM	> 100 µM	> 100 µM									
CCOC(=O)c1cc2c3c(c(C(C)=O)c(O)c2[nH]1)N(CC(C)CC)CC3 (configuration not stated)	> 100 µM	> 100 µM		> 100 µM	> 100 µM	> 100 µM	> 100 µM		> 100 µM	> 100 µM								
CCOP(=O)(OCC)C1CC(n2cc(C)c(=O)[nH]c2=O)OC1CO (configuration not stated)	> 100 µM	> 100 µM	> 100 µM	> 100 µM	> 100 µM	> 100 µM	> 100 µM	> 100 µM		> 100 µM								
COc1cc(C(C)c2cc3c(cc2OCCO)OCO3)cc(OC)c1OC (configuration not stated)	4.81 µM	2.93 µM	> 100 µM		> 100 µM		> 100 µM	> 100 µM		3.43 µM								
CC(C)(Oc1ccc(Cl)cc1)C(=O)N(C(=O)N1CCC(c2ccccc2)CC1)c1ccccc1	> 100 µM		65.8 µM	> 100 µM	> 100 µM	> 100 µM	> 100 µM	> 100 µM	> 100 µM	> 100 µM								
CC1(C)C2C=CC1(C)C1(CC2)OCCO1 (configuration not stated)	> 100 µM				> 100 µM	> 100 µM	> 100 µM	> 100 µM	> 100 µM	> 100 µM								
CC(=O)Nc1ccc(OC2=CCN(C)CC2)cc1			> 100 µM		> 100 µM	> 100 µM	> 100 µM	> 100 µM	> 100 µM	> 100 µM								
C[C@@H]1CC[C@H]2C(C(O)CCCCC(O)C3=C(C(F)(F)F)O[C@@H]4O[C@@]5(C)CC[C@H]6[C@H](C)CC[C@@H]3[C@@]46OO5)=C(C(F)(F)F)O[C@@H]3O[C@@]4(C)CC[C@@H]1[C@]32OO4 (some centres not stated)	> 100 µM	> 100 µM	> 100 µM	> 100 µM	> 100 µM		> 100 µM		> 100 µM	> 100 µM	90.7 µM	26.6 µM	24.7 µM	11.2 µM	21 µM	11.3 µM	9.06 µM	10.5 µM
CN(C(=O)c1ccco1)C(=S)N1CCN(c2ccccc2)CC1	> 100 µM	> 100 µM	> 100 µM	> 100 µM	> 100 µM	> 100 µM	> 100 µM	> 100 µM		> 100 µM								
COc1ccc(C(=O)Cc2ccc(Br)cc2)cc1OC	> 100 µM	> 100 µM	> 100 µM		> 100 µM	> 100 µM	> 100 µM	> 100 µM		> 100 µM								
